Like-named read-outs stand apart in the source and are kept apart here. Marks after values point to notes of the source that are not given here.
Experiments:
other kinases = test: kinase specificity, other kinases versus TTK; assay type: biochemical
[1] = biological target: T1, TTK kinase domain (amino acids 519-808) (Homo sapiens, UniProt P33981); test: target residence time assay (Biacore T200 surface plasmon resonance), TTK; assay type: binding; conditions: SPR, 22° C.
T1 construct: recombinant expressed TTK kinase domain (amino acids 519-808)
T1 sequence (P33981 519-808): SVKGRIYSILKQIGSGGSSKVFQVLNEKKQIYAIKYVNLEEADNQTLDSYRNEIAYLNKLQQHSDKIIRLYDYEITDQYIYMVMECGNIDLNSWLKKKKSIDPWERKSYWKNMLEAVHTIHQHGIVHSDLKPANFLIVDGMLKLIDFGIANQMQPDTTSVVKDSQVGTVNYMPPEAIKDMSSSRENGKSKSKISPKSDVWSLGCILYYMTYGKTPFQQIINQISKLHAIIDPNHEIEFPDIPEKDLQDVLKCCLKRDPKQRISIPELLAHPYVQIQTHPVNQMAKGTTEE
Method: (§1) The affinity, i.e. the equilibrium dissociation constant (KD) (referred to as residence times), of the compound of formula (I) against TTK and PLK1 were determined using a Biacore T200™ surface plasmon resonance instrument using recombinant expressed TTK kinase domain (amino acids 519-808) or biotinylated PLK1. The immobilization of TTK was performed as described in Maia et al. Annals of Oncology, 2015; 26:2180-2192. The immobilization of biotinylated PLK1 was performed as described in Willemsen-Seegers et al. Journal of Molecular Biology, 2017; 429:574-586. The subsequent single cycle kinetic assays were performed at 22° C. using a compound concentration gradient of […], 10, 31.6 and 100 nM for TTK and 10, 31.6, 100, 316 and 1000 nM for PLK1, a contact time of 100 s and a flow rate of […]. The dissociation period was 1200-1800 s and a correction for an unstable surface using a blank run with buffer was performed.

biotinylated PLK1 = biological target: T2, biotinylated PLK1 (Homo sapiens, UniProt P53350); test: target residence time assay (Biacore T200 surface plasmon resonance), PLK1; assay type: binding; conditions: SPR, 22° C.
T2 construct: biotin (biotinylated)
Method: as §1

tumor-derived TTK = biological target: T3, tumor-derived TTK (Homo sapiens, UniProt P33981); test: tumor TTK target occupancy in MDA-MB-231 xenograft-bearing mice; assay type: in vivo; conditions: MDA-MB-231 tumors
T3 construct: from tissue; host or cells: MDA-MB-231 xenograft tumours grown in mice
T3 sequence (P33981 1-857): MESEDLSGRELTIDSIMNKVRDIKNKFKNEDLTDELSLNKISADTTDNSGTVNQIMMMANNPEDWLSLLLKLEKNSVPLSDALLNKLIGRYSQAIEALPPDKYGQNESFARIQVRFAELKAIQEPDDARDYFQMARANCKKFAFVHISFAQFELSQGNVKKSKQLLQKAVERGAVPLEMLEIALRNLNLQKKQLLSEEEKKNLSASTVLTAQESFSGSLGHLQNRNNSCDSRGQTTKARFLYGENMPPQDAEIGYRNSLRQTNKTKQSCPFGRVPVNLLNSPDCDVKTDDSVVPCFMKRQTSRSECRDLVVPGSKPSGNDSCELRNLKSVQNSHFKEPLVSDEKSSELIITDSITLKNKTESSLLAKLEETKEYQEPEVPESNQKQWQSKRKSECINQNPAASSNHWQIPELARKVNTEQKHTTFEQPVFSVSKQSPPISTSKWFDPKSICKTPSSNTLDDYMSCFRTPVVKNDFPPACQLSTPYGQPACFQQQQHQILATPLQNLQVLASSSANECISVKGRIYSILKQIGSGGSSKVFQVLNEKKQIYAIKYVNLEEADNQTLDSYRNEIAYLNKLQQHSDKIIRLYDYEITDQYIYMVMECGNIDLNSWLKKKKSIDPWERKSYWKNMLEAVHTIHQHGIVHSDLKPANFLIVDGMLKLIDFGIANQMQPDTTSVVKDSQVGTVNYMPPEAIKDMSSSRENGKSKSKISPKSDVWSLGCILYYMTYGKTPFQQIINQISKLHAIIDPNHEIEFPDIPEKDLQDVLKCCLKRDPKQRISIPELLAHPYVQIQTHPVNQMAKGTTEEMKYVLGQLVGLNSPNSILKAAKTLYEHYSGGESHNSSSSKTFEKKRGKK
Method: Prolonged TTK target occupancy was also measured in tumors derived from MDA-MB-231 xenograft-bearing mice treated with intermittent i.v. dosing regimen of compound of formula (I). […]

[2] = system: 18 different triple negative breast cancer cell lines; test: 5-day anti-proliferative screen of 18 triple negative breast cancer cell lines; assay type: cell-based; conditions: 120 h; 5-day screen, 18 TNBC cell lines; read-out: median GI50
Description: (§2) In cellular systems, the compound of formula (I) has high potency against sensitive cells.

[3] = system: patient-derived tumor xenografts, including TNBC and hepatocellular cancer (HCC) models; test: monotherapy activity against patient-derived tumor xenografts in mice; assay type: in vivo; conditions: data not shown
Description: as §2

[4] = maximum tolerated dose in combination with carboplatin in non-tumor-bearing mice; assay type: in vivo
Description: Carboplatin is standard of care treatment in a number of tumor indications. To determine the combination effect of the compound of formula (I) and carboplatin, the maximum tolerated dose (MTD) of the compound of formula (I) in combination with an optimal dose of carboplatin was first defined in non-tumor-bearing BALB/c nude mice. […]

BR1282 TNBC PDX tumor [5] = test: first PDX combination study (carboplatin first), BR1282
Method: In a first PDX study, female BALB/c nude mice (CrownBio) of at least 20 g body weight were subcutaneously (s.c.) inoculated in the right flank with tumor fragments (3*3*3 mm) from stock mice bearing the patient-derived xenograft (PDX) triple negative breast cancer (TNBC) tumor, BR1282. Randomization into 5 different treatment groups (8 mice per group) was made when the mean tumor size was 150-200 mm^3. Mice were dosed intravenously (i.v.) twice weekly (2qw) with the compound of formula (I) (7 mg/kg, i.v., 5 mL/kg) or once weekly (qw) carboplatin (60 mg/kg, i.v., 10 mL/kg) or the combination of these doses, in which the compound of formula (I) was administered after carboplatin using either a 4 h or a 24 h gap, when both compounds were administered on the same day/consecutive days. The fifth group received both vehicles using the time interval of 4 h and all groups were dosed twice via the tail vein. Dosing was delayed by 1 day in any mice showing transient body weight loss of >10% at any time point.
(§3) Carboplatin was purchased from Qilu Pharmaceutical Co. Ltd. as a solution (10 mg/mL in 5% (w/v) glucose in pure water). The compound of formula (I) was supplied as a powder by Basilea Pharmaceutica International Ltd. and was prepared freshly as a solution in Ethanol:PEG400:Citric acid 20 mM, at a ratio of 1:1:8 and at a final pH of 3.7, for immediate administration.
(§4) Body weights and tumor volumes were determined at least twice per week, the latter by measuring two dimensions with calipers and applying the formula “V=(L×W^2)/2”, where V is the tumor volume, and L and W are the tumor length and width re-spectively. […] Mice were also culled if the BWL was determined to be >15% for 3 consecutive days. Any mice with >10% BWL, automatically were dosed on one of the following days, as soon as the BWL returned to <10%. All animal protocols were reviewed and approved by the relevant local committees in China, where the studies were performed.
(§5) The statistical significance of efficacy were determined in two different ways using a) the endpoint on day 10 or day 14 depending on the study when it was necessary to cull the vehicle group because of tumor volume exceeding 1500 mm^3, and b) at the endpoint of day 31 in the first study when exponential curve fits were applied to estimate the rates of tumor growth in the different groups. The degree of an effect was quantified by the delta (A) treated/control ratio (ΔT/C) and the statistical significance of the effect was determined by a one-way analysis of variance (1W-ANOVA) with Holms-Sidak applied post-hoc for multiple determinations, where a p-value of <0.05 was considered statistically significant. In addition, an assessment of the combination effect was made based upon the Clarkes Combination Index (CCI), where the CCI=ΔT/CAB−(ΔT/CA*ΔT/CB) in which A and B are two different compounds and AB the combination thereof, where CCI<−0.1 indicates synergy (or a positive interaction), +0.1 (antagonism, or a negative interaction) and between −0.1 and +0.1 indicates additivity (no interaction); see O'Reilly et al. Anti Cancer Drugs 2011; 22:58-78.

BR1282 TNBC PDX tumor [6] = test: second PDX combination study (compound of formula (I) first), BR1282
Method: In a second PDX study, the same model was used as for the first study (TNBC BR1282 PDX model), but this time compound of formula (I) (8 mg/kg, i.v., qw, 5 mL/kg) was administered first and carboplatin (60 mg/kg, i.v., qw, 6 mL/kg) second using a 4 h gap between both administrations and compound of formula (I) was provided qw. Consequently, the mice received both compounds on the same day (4 h gap).
as §3, §4, §5

SKOV-3 s.c. xenografts = assay type: in vivo; conditions: day 23
Method: The anti-tumor activity of the compound of formula (I) in combination with carboplatin was evaluated in an ovarian cancer model, using human SKOV-3 cells grown as a solid tumor xenograft subcutaneously (s.c.) in nude mice.
The maximum tolerated dose (MTD) of the compound of formula (I) in combination with an optimal dose of carboplatin was defined in non-tumor bearing BALB/c nude mice in the experiments described above. […] Thus, in this study, using a human ovarian cell line derived xenograft (CDX) model, that schedule was applied and compared directly with the same order of administration with a 1 hr or 24 hr gap between compounds. In addition, the twice-weekly schedule was compared with a weekly schedule of 7 mg/kg BAL0891 (a weekly dose well below the MTD for compound of formula (I) monotherapy) using a 4 hr gap. Treatments continued until day 24 and tumor volumes and body weight were monitored until day 51.

T2 sequence (P53350 whole entry): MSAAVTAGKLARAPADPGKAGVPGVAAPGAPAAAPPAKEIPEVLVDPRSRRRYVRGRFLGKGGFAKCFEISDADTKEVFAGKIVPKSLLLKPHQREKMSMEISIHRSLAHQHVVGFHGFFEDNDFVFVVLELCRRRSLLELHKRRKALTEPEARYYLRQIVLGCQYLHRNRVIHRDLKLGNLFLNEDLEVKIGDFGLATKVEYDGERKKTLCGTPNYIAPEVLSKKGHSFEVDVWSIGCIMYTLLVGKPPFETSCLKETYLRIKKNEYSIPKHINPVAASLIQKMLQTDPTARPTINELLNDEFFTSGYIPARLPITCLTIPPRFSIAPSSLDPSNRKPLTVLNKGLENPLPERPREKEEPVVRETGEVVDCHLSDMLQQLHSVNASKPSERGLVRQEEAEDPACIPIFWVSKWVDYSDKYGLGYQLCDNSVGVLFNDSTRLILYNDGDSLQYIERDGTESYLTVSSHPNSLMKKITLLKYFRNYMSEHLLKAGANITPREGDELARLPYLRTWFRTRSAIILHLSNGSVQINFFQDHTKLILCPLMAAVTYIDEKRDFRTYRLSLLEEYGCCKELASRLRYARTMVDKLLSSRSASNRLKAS

COc1cc(N2CCNCC2)ccc1Nc1ncc2c(n1)-n1ccc(C(=O)Nc3c(C)cccc3C)c1CC2 [Compound of formula (I)]
other kinase IC50s higher than those for TTK (other kinases): at least 10 fold | target-residency on TTK [1]: > 12 h | target-residency on PLK1 (biotinylated PLK1): a few minutes | time TTK completely occupied after last dose (tumor-derived TTK; i.v. twice-weekly, last MTD dose): at least 72 h | time tumor-derived TTK fully drug-occupied after last administration (tumor-derived TTK; i.v. weekly MTD dosing, repeat experiment): up to 6 days | GI50 [2]: 35 nM | activity against patient-derived tumor xenografts [3]: significant activity | highest tolerated doses of compound of formula (I) in combination with carboplatin ([4]; 2qw i.v., 4 or 24 hours after carboplatin 60 mg/kg qw i.v.): 6 to 7 mg/kg | tolerability when compound of formula (I) applied first ([4]; 6-8 mg/kg, 24 h gap to carboplatin or 2qw schedule): not tolerated | tolerated dose of compound of formula (I) when applied before carboplatin ([4]; weekly, carboplatin 60 mg/kg i.v. qw 4 h later): 8 mg/kg | Efficacy: ΔT/C Day 0 up to Day 31 (BR1282 TNBC PDX tumor [5]; based on mean rate of growth (k), formula (I) 7 mg/kg 2qw i.v., carboplatin 60 mg/kg qw i.v., carboplatin first): 0.41*** | Mean difference of mean rate of growth (k), Vehicle vs. treatment (BR1282 TNBC PDX tumor [5]; comparator Vehicle, day 0 to latest day 31): 0.084 | Efficacy: ΔT/C Day 10 (BR1282 TNBC PDX tumor [5]; mean change in tumor volume, formula (I) 7 mg/kg 2qw i.v., carboplatin 60 mg/kg qw i.v., carboplatin first): 0.58 | Tolerability (Day 10) ΔBW (%) (BR1282 TNBC PDX tumor [5]; mouse, in vivo): 0.5 ± 1.6% | Tolerability (Day 10) ΔI/C (BR1282 TNBC PDX tumor [5]; mouse, in vivo): 0.96 | Efficacy: ΔT/C Day 0 up to Day 17 (BR1282 TNBC PDX tumor [6]; based on mean rate of growth (k), formula (I) 8 mg/kg qw first, carboplatin 60 mg/kg qw 4 h later): 0.70 | k means, Mean difference, Vehicle vs. treatment (BR1282 TNBC PDX tumor [6]; comparator Vehicle): 0.045 | Δ tumor volume on day 14, Mean difference, Vehicle vs. treatment (BR1282 TNBC PDX tumor [6]; comparator Vehicle): 422.3 | Efficacy: ΔT/C Day 14 (BR1282 TNBC PDX tumor [6]; mean change in tumor volume, formula (I) 8 mg/kg qw i.v. first, carboplatin 60 mg/kg qw i.v. 4 h later): 0.60 | Tolerability (Day 14) ΔBW (%) (BR1282 TNBC PDX tumor [6]; mouse, in vivo): 2.7 ± 2.1% | Tolerability (Day 14) ΔT/C (BR1282 TNBC PDX tumor [6]; mouse, in vivo): 1.00 | ΔT/C (SKOV-3 s.c. xenografts; monotherapy Formula (I) 7 mg/kg iv qw): 0.69 | ΔT/C (SKOV-3 s.c. xenografts; monotherapy: Formula (I) 7 mg/kg iv 2qw, Carboplatin 60 mg/kg iv qw): 0.64

Source: US20250161310A1, “PHARMACEUTICAL COMBINATIONS FOR USE IN THE TREATMENT OF NEOPLASTIC DISEASES” (priority 2022, published 2025)
